Article PMC3510655 (Chemical science (Royal Society of Chemistry : 2010), 2013)

Target: T1, quinone reductase 2 (QR2) (Homo sapiens, UniProt P16083)
T1 sequence (P16083 1-231): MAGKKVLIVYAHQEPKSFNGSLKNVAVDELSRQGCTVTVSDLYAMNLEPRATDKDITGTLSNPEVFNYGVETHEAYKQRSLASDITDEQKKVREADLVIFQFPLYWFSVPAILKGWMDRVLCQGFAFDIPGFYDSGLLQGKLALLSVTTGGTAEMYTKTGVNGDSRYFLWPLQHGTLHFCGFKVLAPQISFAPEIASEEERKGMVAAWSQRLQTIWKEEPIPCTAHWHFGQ
Assay: QR2 inhibition assay using human recombinant protein
Type: biochemical
Details: authors' assay system

Substance | IC50 against QR2
Ammosamide H [compound 10] | irreproducible results
Ammosamide E [compound 1] | nearly equipotent to 4
